# Experimental data taken from patent US20170204102A1, “AGRICULTURAL AGENT CONTAINING 2,5-DIKETOPIPERAZINE DERIVATIVE AS ACTIVE INGREDIENT” (NAPRO BIOTEC INC., priority 2010, published 2017).
# Like-named read-outs stand apart in the source and are kept apart here.
# Legend:
# [1] = test system: anthracnose-causing Colletotrichum orbiculare; type: in vivo; settings: tobacco leaf, control 240.3
# [2] = test system: PR-1α promoter fused to the GUS gene; experiment: PR-1α-GUS activity in tobacco leaf; type: in vivo; settings: control 54
# Method: After adding 960 μL of stop buffer (0.2M sodium carbonate) to make 1 mL, fluorescence was measured using a TKO 100 fluorometer (Hoefer Scientific Instruments, USA).
# [3] = test system: cucumber leaf; experiment: Promotion of growth of cucumber leaf; settings: Cucumis sativus, read-out: Width of leaf
# Method: Plant leaves were tested with test compounds by drenching. […] 3-5 days later, the width of the leaves was measured again to compare the growth of the leaves relative to the control group.
# [4] = test system: Colletotrichum orbiculare; type: in vivo; settings: cucumber; for Number of anthractic lesions in first leaf: control 12.5; for Number of anthractic lesions in second leaf: control 96.8
# [5] = test system: Pectobacterium carotovorum SCC1; experiment: Inhibition of soft rot lesion in cucumber leaf; type: in vivo
# [6] = test system: Pectobacterium carotovorum SCC1; experiment: Inhibition of soft rot lesion in tobacco leaf; type: in vivo
# [7] = test system: Pectobacterium carotovorum SCC1; experiment: Inhibition of naturally occurring soft rot in Chinese cabbage hydrocultured in summer; type: in vivo; settings: for Appearance of soft rot: 20 ppm, sprayed, examined 1 week later, control 58
# Source text: After spraying test compounds to hydrocultured Chinese cabbage, naturally occurring soft rot was examined 1 week later.
# [8] = test system: Colletotrichum acutatum; experiment: Inhibition of anthracnose in red pepper fruit after soil drench; settings: control 50
# [9] = test system: PDF1.2 gene; settings: background art; cited from earlier work
# [10] = test system: PR-1 gene; settings: background art; cited from earlier work
SMILES,response vs control in vivo at 1 ppm [3] [%],response vs control in vivo at 10 ppm [3] [%],response vs control in vivo at 100 ppm [3] [%],Number of anthractic lesions in first leaf ([4]; 0.1 ppm),Number of anthractic lesions in second leaf ([4]; 0.1 ppm),Number of anthractic lesions in first leaf ([4]; 1 ppm),Number of anthractic lesions in second leaf ([4]; 1 ppm),Number of anthractic lesions in first leaf ([4]; 10 ppm),Number of anthractic lesions in second leaf ([4]; 10 ppm),Number of anthractic lesions in first leaf ([4]; 100 ppm),Number of anthractic lesions in second leaf ([4]; 100 ppm),"Area of lesion ([5]; 1 ppm, Table 7, control 100) [%]","Area of lesion ([5]; 10 ppm, Table 7, control 100) [%]","Area of lesion ([5]; 100 ppm, Table 7, control 100) [%]","Area of lesion ([6]; 1 ppm, Table 4, control 100) [%]","Area of lesion ([6]; 10 ppm, Table 4, control 100) [%]","Area of lesion ([6]; 100 ppm, Table 4, control 100) [%]",Appearance of anthracnose ([8]; 1 ppm) [%],Appearance of anthracnose ([8]; 10 ppm) [%],Appearance of anthracnose ([8]; 100 ppm) [%],other results
"CC(C)C1NC(=O)C2CCCN2C1=O (stereo not drawn) [Compound No. 26, 3-isopropylhexahydropyrrolo[1,2-a]pyrazin-1,4-dione]",112,128,129,,,,,,,,,,,,,,,,,,"Number of anthractic lesions ([1]; 0.1 ppm): 67.1; Number of anthractic lesions ([1]; 1 ppm): 63.3; PR-1α-GUS activity ([2]; 0.1 ppm): 34,967 nM MU/10 mg/h; PR-1α-GUS activity ([2]; 1 ppm): 27,497 nM MU/10 mg/h"
"O=C1NCC(=O)N2CCCC12 (stereo not drawn) [Compound No. 29, hexahydropyrrolo[1,2-a]pyrazin-1,4-dione]",100,120,115,0.8,51.3,5.0,35.8,10.0,55.5,5.0,87.0,43,63,90,27.5,0,0,0,0,0,"Appearance of soft rot [7]: 14%; Inhibitory effect against soft rot in Chinese cabbage (in words) ([7]; Table 11, FIG. 10): very superior inhibitory effect"
"CCC(C)C1NC(=O)C2CCCN2C1=O (stereo not drawn) [Compound No. 28, 3-(1-methylpropyl)hexahydropyrrolo[1,2-a]pyrazin-1,4-dione]",100,120,129,5.3,55.3,2.3,62.3,12.3,87.3,10.8,77.3,55,83,65,12.5,82.5,2.5,0,25,0,Appearance of soft rot [7]: 49%; melting point: 104 to 105 °C
"CSC(=O)c1cccc2nnsc12 [BTH, benzo-1,2,3-thiadiazole-7-carbothioic acid S-methyl ester, reference compound]",93.8,90.5,92,0.8,100.3,0.8,100.3,0.8,100.3,0.8,100.3,90,90,90,95,95,95,25,0,0,"Number of anthractic lesions ([1]; 1 ppm): 58.3; Induction of expression of the PDF1.2 gene [9]: does not induce the expression; PR-1α-GUS activity ([2]; 1 ppm): 21,015 nM MU/10 mg/h; Area of lesion ([5]; 1 ppm, Table 6, control 100): 100%; Area of lesion ([5]; 1 ppm, Table 8, control 100): 100%; Area of lesion ([5]; 10 ppm, Table 6, control 100): 100%; Area of lesion ([5]; 10 ppm, Table 8, control 100): 100%; Area of lesion ([5]; 100 ppm, Table 6, control 100): 100%; Area of lesion ([5]; 100 ppm, Table 8, control 100): 100%; Induction of expression of the PR-1 gene [10]: induces the expression of the PR-1 gene; Area of lesion ([6]; 1 ppm, Table 3, control 87.5): 52.5%; Area of lesion ([6]; 1 ppm, Table 5, control 73.75): 50%; Area of lesion ([6]; 10 ppm, Table 3, control 87.5): 52.5%; Area of lesion ([6]; 10 ppm, Table 5, control 73.75): 50%; Area of lesion ([6]; 100 ppm, Table 3, control 87.5): 52.5%; Area of lesion ([6]; 100 ppm, Table 5, control 73.75): 50%"
